Here are results for one compound from patent US20250268845A1, “BONE REGENERATION COMPOSITION INCLUDING HORDENINE AND USE THEREOF” ([…]., priority 2023, published 2025).

One assay has as its system mesenchymal stem cells. Kind of assay: Differentiation of mesenchymal stem cells into chondrocytes, Alcian blue staining. It is filed as cell-based. The settings on record: 5 or 10 µM hordenine, compared to the group treated only with a differentiation medium, FIG. 1. The method, then:
Specifically, mesenchymal stem cells were seeded at 2.5×10^4 cells/48 well and divided into a group treated only with the basic medium α-MEM, a group treated only with a differentiation medium (Chondrogenic media (CM)), and groups treated with 5 or 10 µM hordenine. After a few days, the degree of chondrocyte differentiation was evaluated by Alcian blue staining.

Assay [1] concerns osteoarthritis induced by DMM. Kind of assay: Cartilage regeneration in DMM-induced osteoarthritis, Safranin O and fast green staining. It is filed as in vivo, mice. The note with it: 2 mg/kg intra-articularly for 4 weeks from week 5 after DMM, examined at week 9. The method, then: Specifically, osteoarthritis was induced by incising the ligament that stabilizes the medial meniscus in the joint tissue of 9-week-old mice. Starting from week 5 after destabilization of the medial meniscus (DMM), 2 mg/kg of hordenine was injected intra-articularly for 4 weeks, and at week 9, the mice were sacrificed and the joint tissues were examined by staining with Safranin O and fast green. The experimental process is illustrated in FIG. 2, and the experimental results are illustrated in FIGS. 3A and 3B.

Assay [2] concerns osteoclasts. Kind of assay: Bone resorption assay on dentin disc through hematoxylin staining. It is filed as cell-based, mice. The note with it: 10, 20, or 40 μM for 3 days, pre-osteoclasts from BMMs, compared to non-treatment; FIG. 5A. The method, then:
(§1) Specifically, bone marrow-derived macrophages (BMMs) were isolated from 3- to 4-week-old mice and cultured. On day 5, the BMMs were treated with receptor activator of nuclear factors KB ligand (RANKL) and macrophage-colony stimulating factor (M-CSF) for 3 days to be differentiated into pre-osteoclasts. Thereafter, to confirm the degree of osteoclast activation, the pre-osteoclasts were treated with 10, 20, or 40 μM of hordenine for 3 days, and a bone resorption assay through hematoxylin staining and a dentin disc actin ring assay through immunofluorescence staining were performed to confirm the degree of osteoclast activation. Bone resorption assay is a method of seeding osteoclasts on a dentin disc, which is an experimental bone tissue simulating the dentin component of bone, and quantifying the extent to which osteoclasts eat away at the bone. When holes formed by bone erosion are quantified, the pit area is measured, and a lower measurement indicates a lower degree of bone erosion. The more extensively the disc is eroded, the more intensely the disc stains with hematoxylin, while less eroded areas stain more lightly. […]

The test system of assay [3] is osteoclasts. Kind of assay: Dentin disc actin ring assay through immunofluorescence staining. It is filed as cell-based, mice. The settings on record: 10, 20, or 40 μM for 3 days, pre-osteoclasts from BMMs, compared to non-treatment; FIG. 5B. The method, then: as §1
Assay [4] has as its system osteoclasts. Description: LPS-induced bone destruction in mouse skull, TRAP staining. The note with it: 1 mg/kg intra-calvarially for 5 days after LPS 12.5 mg/kg; skulls harvested 6 days after the first LPS injection day; compared to LPS only; FIG. 6. It is filed as in vivo, mice. The procedure:
Specifically, 12.5 mg/kg of lipopolysaccharide (LPS) was injected intra-calvarially into the skull of 5-week-old male mice twice in total: once on the first injection day and once 2 days after the first injection day, thereby inducing bone destruction. Thereafter, 1 mg/kg of hordenine was injected intra-calvarially for 5 days, starting 1 day after the first LPS injection day. 6 days after the first LPS injection day, the mice were sacrificed and the skulls were harvested from the mice. Then, the degree of osteoclast differentiation was evaluated by tartrate-resistant acid phosphatase (TRAP) staining. The results thereof are illustrated in FIG. 6.

For the compound `CN(C)CCc1ccc(O)cc1` [hordenine, 4-(2-dimethylaminoethyl) phenol], in the assay with mesenchymal stem cells, the “degree of differentiation from mesenchymal stem cells into chondrocytes” value is “much higher”. In assay [1], the “cartilage degradation (OARSI grade)” value is listed as “decrease”, the “osteophytes caused by osteoarthritis induction” value is “reduced”, the synovitis entry is “reduced” and the “thickness of subchondral bone plate (SBP)” value was “reduced”. Besides, the “cartilage (red portion) that had collapsed due to DMM” value in assay [1] (FIGS. 3A and 3B) was “restored”. Also, in the assay on osteoclasts [2], the “hematoxylin staining (bone erosion of dentin disc)” value is on record as “became lighter in a concentration-dependent manner” and the pit area entry is “reduced”. Besides, the “number of osteoclasts forming actin rings” value in the assay with osteoclasts [3] is recorded as “decreased in a concentration-dependent manner”. Further, the “TRAP staining of skulls (degree of osteoclast differentiation)” value in the assay on osteoclasts [4] is listed as “lightly stained with TRAP”.
